Reference: PubChem BioAssay AID2060333 (Molecular Pharmacology Branch, DTP, NCI, 2025)
pIC50: −log10 of the molar value. Where “and” joins values, the source holds several entries; their conditions need not be identical. Identical values can stand only once.

System: 845751-090-R-J2-PDC tumor spheroid viability
Assay: Anticancer human tumor 845751-090-R-J2-PDC patient-derived head and neck squamous carcinoma cell line growth inhibition [IpAb]
Settings: spheroids with HUVEC and MSC; for viability, T/C: stronger effect = lower value
Summary of the method: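 Spheroids of 60% malignant cells, 25% HUVEC and 15% MSC were exposed to targeted agents combined with ipatasertib or abemaciclib. Doses started at or near clinical Cmax (10 microM when unknown) and fell in half-log steps.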

[1] = curve of first compound, second compound 0.1 µM
[2] = curve of first compound, second compound 0.316 µM
[3] = curve of first compound, second compound 1 µM
[4] = curve of first compound, second compound 3.16 µM
[5] = curve of first compound, second compound 10 µM
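Note: spheroids exposed to compounds for 7 days before readout.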
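Throughout, for viability, T/C: CTG3D luminescence normalised so that 100% = DMSO vehicle control.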

With `C=CCn1c(=O)c2cnc(Nc3ccc(N4CCN(C)CC4)cc3)nc2n1-c1cccc(C(C)(C)O)n1` + CC(C)NCC(C(=O)N1CCN(c2ncnc3c2C(C)CC3O)CC1)c1ccc(Cl)cc1 the pIC50 [1] was 7.26, the pIC50 [2] was over 7.50 and the pIC50 [3] was over 7.50. For the same molecule, the pIC50 [4] was over 7.50, the pIC50 [5] was over 7.50 and the viability, T/C (second compound 0.1 µM, first compound 0.0316 µM) was 62.1%. It also gave a viability, T/C (second compound 0.1 µM, first compound 0.1 µM) of 38.2%, a viability, T/C (second compound 0.1 µM, first compound 0.316 µM) of 22.2% and a viability, T/C (second compound 0.1 µM, first compound 1 µM) of 21.7%. The viability, T/C (second compound 0.1 µM, first compound 3.16 µM) was 35.8%, the viability, T/C (second compound 0.1 µM, first compound 10 µM) was 56.6% and the viability, T/C (second compound 0.316 µM, first compound 0.0316 µM) was 34%. For the same molecule, the viability, T/C (second compound 0.316 µM, first compound 0.1 µM) was 22.1%, the viability, T/C (second compound 0.316 µM, first compound 0.316 µM) was 19.9% and the viability, T/C (second compound 0.316 µM, first compound 1 µM) was 16.9%. For the same molecule, the viability, T/C (second compound 0.316 µM, first compound 3.16 µM) was 22.1%, the viability, T/C (second compound 0.316 µM, first compound 10 µM) was 28.4% and the viability, T/C (second compound 1 µM, first compound 0.0316 µM) was 24.5%. The viability, T/C (second compound 1 µM, first compound 0.1 µM) was 15%, the viability, T/C (second compound 1 µM, first compound 0.316 µM) was 11.1% and the viability, T/C (second compound 1 µM, first compound 1 µM) was 13.7%. The viability, T/C (second compound 1 µM, first compound 3.16 µM) was 22.9%, the viability, T/C (second compound 1 µM, first compound 10 µM) was 18.9% and the viability, T/C (second compound 3.16 µM, first compound 0.0316 µM) was 19.2%. It also gave a viability, T/C (second compound 3.16 µM, first compound 0.1 µM) of 8.76%, a viability, T/C (second compound 3.16 µM, first compound 0.316 µM) of 7.09% and a viability, T/C (second compound 3.16 µM, first compound 1 µM) of 32.9%. For the same molecule, the viability, T/C (second compound 3.16 µM, first compound 3.16 µM) was 19.9%, the viability, T/C (second compound 3.16 µM, first compound 10 µM) was 11.9% and the viability, T/C (second compound 10 µM, first compound 0.0316 µM) was 6.27%. The viability, T/C (second compound 10 µM, first compound 0.1 µM) was 4.29%, the viability, T/C (second compound 10 µM, first compound 0.316 µM) was 4.36% and the viability, T/C (second compound 10 µM, first compound 1 µM) was 14%. For the same molecule, the viability, T/C (second compound 10 µM, first compound 3.16 µM) was 13.9% and the viability, T/C (second compound 10 µM, first compound 10 µM) was 8.16%.

`Cn1ncc(Cl)c1-c1cc(C(=O)NC(CN)Cc2cccc(F)c2)sc1Cl` (configuration not stated) was tested, and the viability, T/C (compound 0.0316 µM) was 105% and 86.6%, the viability, T/C (compound 0.1 µM) was 76.1% and 51.8% and the viability, T/C (compound 0.316 µM) was 52.6% and 32.5%. For the same molecule, the viability, T/C (compound 1 µM) was 38.7% and 29.1%, the viability, T/C (compound 3.16 µM) was 16% and 10.7% and the viability, T/C (compound 10 µM) was 1.14% and 1.09%. The pIC50 (curve of compound) was 6.33 and 6.86.

`CC(C)(C)c1cnc(CSc2cnc(NC(=O)C3CCNCC3)s2)o1` + CC(C)NCC(C(=O)N1CCN(c2ncnc3c2C(C)CC3O)CC1)c1ccc(Cl)cc1 was tested, and the pIC50 [1] was 7.52, the pIC50 [2] was over 8.02 and the pIC50 [3] was over 8.02. For the same molecule, the pIC50 [4] was over 8.02, the pIC50 [5] was over 8.02 and the viability, T/C (second compound 0.1 µM, first compound 0.00949 µM) was 88.9%. It also gave a viability, T/C (second compound 0.1 µM, first compound 0.03 µM) of 50.1%, a viability, T/C (second compound 0.1 µM, first compound 0.0949 µM) of 7.88% and a viability, T/C (second compound 0.1 µM, first compound 0.3 µM) of 0.63%. It also gave a viability, T/C (second compound 0.1 µM, first compound 0.949 µM) of 0.78%, a viability, T/C (second compound 0.1 µM, first compound 3 µM) of 0.94% and a viability, T/C (second compound 0.316 µM, first compound 0.00949 µM) of 34.4%. It also gave a viability, T/C (second compound 0.316 µM, first compound 0.03 µM) of 40.4%, a viability, T/C (second compound 0.316 µM, first compound 0.0949 µM) of 9.45% and a viability, T/C (second compound 0.316 µM, first compound 0.3 µM) of 0.23%. It also gave a viability, T/C (second compound 0.316 µM, first compound 0.949 µM) of 0.27%, a viability, T/C (second compound 0.316 µM, first compound 3 µM) of 0.95% and a viability, T/C (second compound 1 µM, first compound 0.00949 µM) of 27%. It also gave a viability, T/C (second compound 1 µM, first compound 0.03 µM) of 28.8%, a viability, T/C (second compound 1 µM, first compound 0.0949 µM) of 10.8% and a viability, T/C (second compound 1 µM, first compound 0.3 µM) of 0.59%. The viability, T/C (second compound 1 µM, first compound 0.949 µM) was 0.34%, the viability, T/C (second compound 1 µM, first compound 3 µM) was 0.55% and the viability, T/C (second compound 3.16 µM, first compound 0.00949 µM) was 27.4%. It also gave a viability, T/C (second compound 3.16 µM, first compound 0.03 µM) of 27.7%, a viability, T/C (second compound 3.16 µM, first compound 0.0949 µM) of 9.06% and a viability, T/C (second compound 3.16 µM, first compound 0.3 µM) of 0.29%. For the same molecule, the viability, T/C (second compound 3.16 µM, first compound 0.949 µM) was 0.31%, the viability, T/C (second compound 3.16 µM, first compound 3 µM) was 0.87% and the viability, T/C (second compound 10 µM, first compound 0.00949 µM) was 14.1%. It also gave a viability, T/C (second compound 10 µM, first compound 0.03 µM) of 12.7%, a viability, T/C (second compound 10 µM, first compound 0.0949 µM) of 3.48% and a viability, T/C (second compound 10 µM, first compound 0.3 µM) of 1.09%. For the same molecule, the viability, T/C (second compound 10 µM, first compound 0.949 µM) was 0.27% and the viability, T/C (second compound 10 µM, first compound 3 µM) was 1.61%.
